These results are taken from ChEMBL document CHEMBL4765442, “Anti-Giardia Drug Discovery: Current Status and Gut Feelings” (J Med Chem, 2020).

For data set [1], the system named is Giardia intestinalis. The experiment in a line: Antigiardial activity against Giardia intestinalis IMSS:0696:1 incubated for 48 hrs followed by wash out by hemocytometric counting method. Format: functional, organism-based. The conditions noted are these: Giardia duodenalis, IMSS:0696:1, 48 h.
Data set [2] is described as follows: Selectivity ratio of CC50 for human HeLa cells incubated for 2 days by alamarBlue reagent to IC50 for Giardia lamblia 713M3 measured after 48 hrs by BacTiter-Glo cell viability assay. Format: toxicity. Conditions: read-out: Ratio CC50/IC50.
For data set [3], the system named is Giardia intestinalis. The experiment in a line: Antimicrobial activity against Giardia lamblia BRIS/83/HEPU/106 trophozoites measured after 2 days by BacTiter-Glo cell viability assay. In kind it is functional, organism-based. The conditions noted are these: Giardia duodenalis, BRIS/83/HEPU/106, 48 h.
A short description of data set [4]: Selectivity ratio of CC50 for human HeLa cells incubated for 2 days by alamarBlue reagent to IC50 for Giardia lamblia BRIS/87/HEPU/713 measured after 48 hrs by BacTiter-Glo cell viability assay. Format: toxicity. Conditions: read-out: Ratio CC50/IC50.
Data set [5] deals with Giardia intestinalis. The experiment in a line: Antimicrobial activity against Giardia lamblia BRIS/87/HEPU/713 trophozoites measured after 48 hrs by BacTiter-Glo cell viability assay. In kind it is functional, organism-based. The conditions noted are these: Giardia duodenalis, BRIS/87/HEPU/713, 48 h.
Data set [6] relates to Giardia intestinalis. The experiment in a line: Antimicrobial activity against Giardia lamblia WB-M2 trophozoites measured after 2 days by BacTiter-Glo cell viability assay. Conditions: Giardia duodenalis, WB-M2, 48 h. In kind it is functional, organism-based.
Data set [7] in a line: Selectivity ratio of CC50 for human HeLa cells incubated for 2 days by alamarBlue reagent to IC50 for Giardia lamblia BRIS/83/HEPU/106 measured after 48 hrs by BacTiter-Glo cell viability assay. In kind it is toxicity. Conditions: read-out: Ratio CC50/IC50.
Data set [8] in a line: Selectivity ratio of CC50 for human HeLa cells incubated for 2 days by alamarBlue reagent to IC50 for Giardia lamblia WB-M2 measured after 48 hrs by BacTiter-Glo cell viability assay. Conditions: time 2 day, read-out: Ratio CC50/IC50. In kind it is toxicity.
The subject of data set [9] is Giardia intestinalis. The experiment in a line: Antimicrobial activity against Giardia lamblia 713M3 trophozoites measured after 2 days by BacTiter-Glo cell viability assay. Format: functional, organism-based. Conditions: Giardia duodenalis, 713M3, 48 h.
The subject of data set [10] is Giardia intestinalis. Kind of data set: Growth inhibition of Giardia duodenalis isolate 14-03/F7 measured after 24 hrs by resazurin based assay. In kind it is functional, organism-based. Conditions: isolate 14-03/F7, 24 h.
In data set [11] the test system is Giardia intestinalis. Kind of data set: Antigiardial activity against metronidazole-resistant Giardia duodenalis BRIS/83/HEPU/106-2ID10 incubated for 3 days followed by compound wash-out and measured after 4 days. Format: functional. Conditions: time 3 day.
In data set [12] the test system is Giardia intestinalis. The experiment in a line: Antigiardial activity against metronidazole-resistant Giardia duodenalis WB1B-M3 incubated for 3 days followed by compound wash-out and measured after 4 days. Format: functional. Conditions: time 3 day.
Data set [13] concerns Giardia intestinalis. Kind of data set: Antigiardial activity against Giardia duodenalis BRIS/83/HEPU/106 incubated for 3 days followed by compound wash-out and measured after 4 days. In kind it is functional. Conditions: time 3 day.
Data set [14] relates to Giardia intestinalis. Kind of data set: Antigiardial activity against Giardia duodenalis BRIS/91/HEPU/1279 incubated for 3 days followed by compound wash-out and measured after 4 days. In kind it is functional. The conditions noted are these: time 3 day.
Data set [15] deals with Giardia intestinalis. Kind of data set: Antigiardial activity against Giardia duodenalis WBC6 trophozoites incubated for 72 hrs under anaerobic condition by resazurin-dye based fluorimetry. Format: functional, organism-based. The conditions noted are these: WBC6, 72 h.
In data set [16] the test system is Giardia intestinalis. Kind of data set: Antigiardial activity against Giardia duodenalis WBC6 trophozoites incubated for 48 hrs under microaerophilic condition by methylene blue colorimetric assay. In kind it is functional, organism-based. The conditions noted are these: WBC6, 48 h.
Data set [17] deals with Giardia intestinalis. Kind of data set: Antigiardial activity against metronidazole-resistant Giardia duodenalis 106-2ID10. In kind it is functional.
Data set [18] concerns Giardia intestinalis. The experiment in a line: Antigiardial activity against metronidazole-resistant Giardia duodenalis 713-M3. In kind it is functional.
The subject of data set [19] is Giardia intestinalis. The experiment in a line: Antigiardial activity against metronidazole-resistant Giardia duodenalis WB-M3. In kind it is functional.
Data set [20] relates to Giardia intestinalis. Kind of data set: Antigiardial activity against Giardia duodenalis Ac2 incubated for 3 days by fluorescence method. In kind it is functional, organism-based. Conditions: Ac2, 72 h.
Data set [21] has as its system Giardia intestinalis. The experiment in a line: Antigiardial activity against Giardia duodenalis WB (ATCC 30957) incubated for 3 days by fluorescence method. Format: functional, organism-based. The conditions noted are these: WB ATCC 30957, 72 h.
Data set [22] concerns Giardia intestinalis. Kind of data set: Antigiardial activity against Giardia duodenalis Ac1 incubated for 3 days by fluorescence method. Conditions: Ac1, 72 h. Format: functional, organism-based.
Data set [23] can be described thus: Half-life of the compound. Format: physicochemical.
Data set [24] deals with Giardia intestinalis. Kind of data set: Antigiardial activity against Giardia intestinalis incubated for 48 hrs. Format: functional, organism-based. The conditions noted are these: Giardia duodenalis.
In data set [25] the test system is Giardia intestinalis. Kind of data set: Antigiardial activity against Giardia duodenalis Ah1 incubated for 3 days by fluorescence method. The conditions noted are these: Ah1, 72 h. Format: functional, organism-based.
Data set [26] relates to Giardia intestinalis. The experiment in a line: Antigiardial activity against Giardia duodenalis G1 incubated for 3 days by fluorescence method. In kind it is functional, organism-based. The conditions noted are these: G1, 72 h.
Data set [27] concerns Giardia intestinalis. Kind of data set: Antigiardial activity against Giardia duodenalis Ah2 incubated for 3 days by fluorescence method. Format: functional, organism-based. Conditions: Ah2, 72 h.
The subject of data set [28] is Giardia intestinalis. The experiment in a line: Antigiardial activity against Giardia duodenalis GS/M-83-H7 (ATCC 50581) incubated for 3 days by fluorescence method. Conditions: 72 h. In kind it is functional, organism-based.
The subject of data set [29] is Giardia intestinalis. The experiment in a line: Antigiardial activity against Giardia duodenalis Ec2 incubated for 3 days by fluorescence method. Conditions: Ec2, 72 h. In kind it is functional, organism-based.
The test system of data set [30] is Giardia intestinalis. The experiment in a line: Antigiardial activity against Giardia duodenalis Ec1 incubated for 3 days by fluorescence method. Conditions: Ec1, 72 h. Format: functional, organism-based.
The subject of data set [31] is Giardia intestinalis. Kind of data set: Antigiardial activity against Giardia lamblia WB (ATCC 30957) incubated for 3 days by [3H]thymidine incorporation based assay. In kind it is functional, organism-based. Conditions: Giardia duodenalis.
Data set [32] concerns Giardia intestinalis. The experiment in a line: Antigiardial activity against Giardia lamblia 713M3 trophozoites incubated for 3 days by microscopic method. Format: functional, Giardia duodenalis. Conditions: time 3 day.
In data set [33] the test system is Giardia intestinalis. Kind of data set: Antigiardial activity against Giardia lamblia incubated for 48 hrs by ATPLite reagent based luminescence assay. In kind it is functional, organism-based. The conditions noted are these: Giardia duodenalis.
The test system of data set [34] is Giardia intestinalis. Kind of data set: Antigiardial activity against Giardia lamblia GS/H7 trophozoites incubated for 3 days by microscopic method. Format: functional, Giardia duodenalis. Conditions: time 3 day.
The test system of data set [35] is Giardia intestinalis. The experiment in a line: Antigiardial activity against Giardia intestinalis WB ATCC 30957 incubated for 72 hrs by hemocytometric counting method. In kind it is functional, organism-based. Conditions: Giardia duodenalis, WB ATCC 30957, 72 h.

Converted amounts (≈) assume the structure as drawn.

The compound `Cc1ncc([N+](=O)[O-])n1CC(C)OC(=O)Nc1ccccc1` (configuration not stated) returned an IC50 in the data set on Giardia intestinalis [1] of 500 nM.
Same read-out and setting: with `Cc1ncc([N+](=O)[O-])n1CC(C)OC(=O)Nc1ccc([N+](=O)[O-])cc1` (configuration not stated) the figure was 500 nM.
With `O=C(CCCCCn1cc(C2CC2)nn1)Nc1ncc([N+](=O)[O-])s1`, the selectivity ratio at 48 h in [2] was more than 27; in [4], more than 500; in [7], more than 27; in data set [8], more than 27. Also, the IC50 worked out at 100 nM in the data set on Giardia intestinalis [3], 100 nM with Giardia intestinalis [5], 1800 nM in the data set with Giardia intestinalis [6] and 100 nM in the data set with Giardia intestinalis [9].
On to `CCCCCCCCCCC[C@@H](C[C@@H]1OC(=O)[C@H]1CCCCCC)OC(=O)[C@H](CC(C)C)NC=O` [ORLISTAT], for which the half-maximal inhibitory concentration (IC50) in the data set with Giardia intestinalis [10] stood at 2.8 µM.
For the compound `CN1CC/C(=C\c2ncc([N+](=O)[O-])n2C)C1=O`, the MLC turned out to be 5 µM (≈ 1.18 µg/mL) in the data set with Giardia intestinalis [11], 10 µM (≈ 2.36 µg/mL) with Giardia intestinalis [12], 1 µM (≈ 0.236 µg/mL) in the data set with Giardia intestinalis [13] and 1 µM (≈ 0.236 µg/mL) with Giardia intestinalis [14].
Take `Cc1ncc([N+](=O)[O-])n1CC(C)OC(=O)Nc1ccc(F)cc1` (configuration not stated): the IC50 with Giardia intestinalis [1] was 500 nM. In other words, the sub-micromolar range.
On the same count and under the same terms, as for `Cc1ncc([N+](=O)[O-])n1CCOC(=O)Nc1ccc(Cl)cc1`, the figure is 500 nM; as for `Cc1ncc([N+](=O)[O-])n1CC(C)OC(=O)Nc1ccc(Cl)cc1` (configuration not stated), 500 nM.
`O=[N+]([O-])c1ccc(SCCCCCCO)c2nonc12`: the half-maximal inhibitory concentration (IC50) with Giardia intestinalis [15] came out at 600 nM; in the data set with Giardia intestinalis [16], 300 nM.
Consider `Cn1c(-c2ccc3c(c2)OCO3)cnc1/C=C/c1ncc([N+](=O)[O-])n1C`, for which the values for the MIC in the data set on Giardia intestinalis [17], with Giardia intestinalis [18] and against Giardia intestinalis [19] were 1 µM (≈ 0.353 µg/mL), 0.5 µM (≈ 0.177 µg/mL) and 1 µM (≈ 0.353 µg/mL), respectively.
On to `Cc1ncc([N+](=O)[O-])n1CCO` [METRONIDAZOLE], for which the 50% inhibitory concentration (IC50) was determined as 500 nM with Giardia intestinalis [20]; 500 nM with Giardia intestinalis [21]; 500 nM with Giardia intestinalis [22]; 1000 nM with Giardia intestinalis [24]; 500 nM in the data set with Giardia intestinalis [25]; 4400 nM in the data set with Giardia intestinalis [1]. For the same compound, the half-maximal inhibitory concentration (IC50) with Giardia intestinalis [26], in the data set on Giardia intestinalis [27], with Giardia intestinalis [28], in the data set with Giardia intestinalis [29], in the data set with Giardia intestinalis [30] and with Giardia intestinalis [31] was 500 nM throughout. The same compound yielded an IC50 in the data set on Giardia intestinalis [10] of 6.2 µM. Also, the MLC with Giardia intestinalis [11] is more than 500 µM; in the data set with Giardia intestinalis [12], more than 500 µM; with Giardia intestinalis [13] it was 100 µM (≈ 17.1 µg/mL); in the data set on Giardia intestinalis [14], 50 µM (≈ 8.56 µg/mL). This compound also had a half-life in [23] of 360 min.
On to `CCN(CC)C(=S)SSC(=S)N(CC)CC`, for which the MLC with Giardia intestinalis [32] came to 0.8 µM (≈ 0.237 µg/mL); in the data set with Giardia intestinalis [34] it was 1.5 µM (≈ 0.445 µg/mL). The compound further came in with a 50% inhibitory concentration (IC50) in the data set with Giardia intestinalis [33] of 900 nM.
As to `Cc1ncc([N+](=O)[O-])n1CCN1CCN(c2ccnc3cc(Cl)ccc23)CC1`, in the data set on Giardia intestinalis [35], inhibition was half-maximal at 970 nM (IC50).
In [23], `CC(=O)Oc1ccccc1C(=O)Nc1ncc([N+](=O)[O-])s1` [NITAZOXANIDE] gave a half-life of 438 min.
For the compound `Cc1ncc([N+](=O)[O-])n1CC(C)OC(=O)NC1CCCCC1` (configuration not stated), in the data set with Giardia intestinalis [1], the IC50 was 500 nM.
